# Test results taken from patent publication US20090111997A1, “Method of Generating Amorphous Solid for Water-Insoluble Pharmaceuticals” (priority 2005, published 2009).
# Experimental: The term “water insoluble pharmaceutical” means a pharmaceutical active ingredient that is insoluble or nearly insoluble in water with a dose number greater than 1. The dose number is defined as follows:
# Dose number=theoretical dose in mg/water solubility×250 ml.
# For example, if the theoretical dose of the drug is 20 mg per dose. […] Another example of a water insoluble pharmaceutical includes the compound of Formula I
smiles,measurement,value
CC[C@H](C)C(=O)O[C@H]1C[C@@H](C)C=C2C=C[C@H](C)[C@H](CC[C@@H]3C[C@@H](O)CC(=O)O3)[C@H]21 [lovastatin],dose number (theoretical dose in mg/water solubility×250 ml),> 8
